Source: US11447472B2, “Polymorophs of 5-aza-4′-thio-2′-deoxycytidine” (Southern Research Institute, priority 2020, dated 2022)
“And” between values parts separate entries of the source, which are not always exact repeats. Identical values can stand only once. Like-named read-outs stand apart in the source and are kept apart here. Values belong to the compound of their own block, whether it stands above or below them.

How the values were obtained:
[1] = Pharmacokinetics of capsules in male SD rats; settings: 2 mg/kg; for AUC(0-inf) / AUC(0-t) / Cmax / MRT inf / half-life / Tmax: po; for AUC(0-inf): AUCInf; for AUC(0-t): AUClast; for MRT inf: MRTInf_obs
[2] = tested on: blood cancer cells (Mv4-11); assay: IC50 in blood cancer cells (Mv4-11) at different exposure times; type: cell-based; settings: Homo sapiens
Method: Furthermore, the half maximal inhibitory concentration (IC50) was measured at 1 hr, 2 hr, and 4 hr after the blood cancer cells (Mv4-11) were treated with aza-T-dCyd starting material (SM). […] In addition, the measured IC50 at 4 hr was about 80 nM, which was much higher than the expected value of 20 nM. Therefore, it was confirmed that the efficiency of aza-T-dCyd starting material (SM) greatly decreases as the exposure time of the compound to the cells increases.

[3] = tested on: tumor; assay: Tumor size (in vivo luciferase activity) in female NOD-SCID mice; settings: for tumor size (in vivo luciferase activity): 5 days on, 2 days rest, 9 days rest, repeated, FIG. 17
Method: Aza-T-dCyd starting material (SM) was administered to […] female NOD-SCID mice splitting into four groups. Group 1 was a vehicle control group. In group 2, 2.0 mg/kg of aza-T-dCyd starting material (SM) was administered once a day, and in group 3, 1.0 mg/kg of aza-T-dCyd starting material (SM) was administered twice a day. In groups 2 and 3, aza-T-dCyd starting material (SM) in the above amounts was administered for 5 days followed by 2 days as a rest period, and was administered again for another 5 days followed by 9 days as another rest period. This cycle was repeated. In group 4, 1.0 mg/kg of aza-T-dCyd starting material (SM) was administered once a day for five days followed by 2 days as a rest period, and this cycle was repeated.

[4] = tested on: HL-60 cell lines; assay: CellTiter-Glo cell viability, HL-60; type: cell-based; settings: HL-60, 3 days, FIG. 24
Method: (§1) K562 and HL-60 cell lines were cultured and maintained in RPMI (10% FBS, 1% Penicillin-Streptomycin) medium at 37° C., 95% Air, and 5% CO2. K562 and HL-60 cell lines were each seeded in 96-well plates at a density of 3000 cells/well (90 μl). Form A and SM were treated in each well at a final concentration of 10 μM by treating 10 μl using 3-fold dilution. The cells were incubated for 3 days at 37° C., 95% Air, and 5% CO2. 96-well plates were placed in room temperature for 30 minutes in order to equilibrate. Then, 100 μl of CellTiter-Glo® Luminescent Cell Viability Assay Reagent was added in 96-wells and incubated for 10 minutes in room temperature. Luminescence was measured using Luminometer and IC50 value was analyzed using GraphPrism.

[5] = Dissolution rate (IDR) at pH 1.2, 6.5 and 5.0; type: physicochemical
[6] = tested on: K562 cell lines; assay: CellTiter-Glo cell viability, K562; type: cell-based; settings: K562, 3 days, FIG. 23
Method: as §1

[7] = 0.25 h, capsule (8:92 w/w with microcrystalline cellulose), male SD rat
[8] = 0.25 h, capsule, mean of two male SD rats
[9] = 0.5 h, capsule, mean of two male SD rats
[10] = capsule, mean of two male SD rats
[11] = male, SD, rat, plasma, Mean, capsule, mean of two male SD rats
[12] = male, SD, rat, plasma, individual rat, capsule, male SD rat

Concentration (plasma), individual rat [1, 7]: 29.1 ng/mL and 64.9 ng/mL
Concentration (plasma), Mean [1, 8]: 47.0 ng/mL
Concentration (plasma), individual rat ([1]; 0.5 h, capsule, male SD rat): 123 ng/mL and 243 ng/mL
Concentration (plasma), Mean [1, 9]: 183 ng/mL
Concentration (plasma), individual rat ([1]; 1 h, capsule, male SD rat): 321 ng/mL and 610 ng/mL
Concentration (plasma), individual rat ([1]; 2 h, capsule, male SD rat): 613 ng/mL
Concentration (plasma), individual rat ([1]; 4 h, capsule, male SD rat): 442 ng/mL
Concentration (plasma), individual rat ([1]; 6 h, capsule, male SD rat): 283 ng/mL
Concentration (plasma), individual rat ([1]; 8 h, capsule, male SD rat): 199 ng/mL
Concentration (plasma), individual rat ([1]; 24 h, capsule, male SD rat): 2.65 ng/mL and 4.48 ng/mL
AUCInf, individual rat ([1]; capsule, male SD rat): 4780 ng·h/mL
AUC_%Extrap_obs, individual rat ([1]; capsule, male SD rat): 0.255% and 0.402%
AUClast, individual rat ([1]; capsule, male SD rat): 4761 ng·h/mL
AUClast/D, individual rat ([1]; capsule, male SD rat): 2030 ng·h/mL per mg/kg and 2380 ng·h/mL per mg/kg
Cmax, individual rat ([1]; capsule, male SD rat): 613 ng/mL
MRTInf_obs, individual rat ([1]; capsule, male SD rat): 5.23 h
T1/2, individual rat ([1]; capsule, male SD rat): 2.98 h
AUC_%Extrap_obs, Mean [1, 10]: 0.329%
AUClast/D, Mean [1, 10]: 2210 ng·h/mL per mg/kg
concentration at 1 h ([1]; male, SD, rat, plasma, oral, Concentration (plasma), Mean, 1 h, capsule, mean of two male SD rats): 466 ng/mL
concentration at 2 h ([1]; male, SD, rat, plasma, oral, Concentration (plasma), Mean, 2 h, capsule, mean of two male SD rats): 657 ng/mL
concentration at 4 h ([1]; male, SD, rat, plasma, oral, Concentration (plasma), Mean, 4 h, capsule, mean of two male SD rats): 415 ng/mL
concentration at 6 h ([1]; male, SD, rat, plasma, oral, Concentration (plasma), Mean, 6 h, capsule, mean of two male SD rats): 272 ng/mL
concentration at 8 h ([1]; male, SD, rat, plasma, oral, Concentration (plasma), Mean, 8 h, capsule, mean of two male SD rats): 178 ng/mL
concentration at 24 h ([1]; male, SD, rat, plasma, oral, Concentration (plasma), Mean, 24 h, capsule, mean of two male SD rats): 3.57 ng/mL
concentration at 2 h ([1]; male, SD, rat, plasma, oral, Concentration (plasma), individual rat, 2 h, capsule, male SD rat): 700 ng/mL
concentration at 4 h ([1]; male, SD, rat, plasma, oral, Concentration (plasma), individual rat, 4 h, capsule, male SD rat): 387 ng/mL
concentration at 6 h ([1]; male, SD, rat, plasma, oral, Concentration (plasma), individual rat, 6 h, capsule, male SD rat): 261 ng/mL
concentration at 8 h ([1]; male, SD, rat, plasma, oral, Concentration (plasma), individual rat, 8 h, capsule, male SD rat): 156 ng/mL
AUC(0-inf) [1, 11]: 4430 ng·h/mL
AUC(0-inf) [1, 12]: 4080 ng·h/mL
AUC(0-t) [1, 11]: 4410 ng·h/mL
AUC(0-t) [1, 12]: 4060 ng·h/mL
Cmax [1, 11]: 657 ng/mL
Cmax [1, 12]: 700 ng/mL
MRT inf [1, 11]: 5.15 h
MRT inf [1, 12]: 5.06 h
half-life ([1]; male, SD, rat, plasma, T1/2, Mean, capsule, mean of two male SD rats): 2.85 h
half-life ([1]; male, SD, rat, plasma, T1/2, individual rat, capsule, male SD rat): 2.72 h
Tmax [1, 11]: 2 h
Tmax [1, 12]: 2 h
IC50 ([2]; Mv4-11, 1 hr after treatment, read-out: measured IC50 at 1 hr): ~160 nM
IC50 ([2]; Mv4-11, 2 hr after treatment, read-out: measured IC50 at 2 hr): ~120 nM
IC50 ([2]; Mv4-11, 4 hr after treatment, read-out: measured IC50 at 4 hr): ~80 nM
IC50 ([2]; Mv4-11, expected from the IC50 measured at 1 hr, read-out: expected IC50 at 2 hr): 80 nM
IC50 ([2]; Mv4-11, expected from the IC50 measured at 1 hr, read-out: expected IC50 at 4 hr): 20 nM
Compound: Nc1ncn([C@H]2C[C@H](O)[C@@H](CO)S2)c(=O)n1 [SM, 5-Aza-4′-thio-2′-deoxycytidine]
tumor size on day 43 ([3]; Group 2 (2.0 mg/kg, once a day) compared with 'Group 1 (1.0 mg/kg, twice a day)', FIG. 18): significantly smaller
tumor size (in vivo luciferase activity) ([3]; Group 2: 2.0 mg/kg once a day): most greatly suppressed
tumor size (in vivo luciferase activity) ([3]; Group 3: 1.0 mg/kg twice a day): sharply increased after 40 days

IC50 value lower than SM [4]: about 5%
Concentration (plasma), individual rat [1, 7]: 77.2 ng/mL and 511 ng/mL
Concentration (plasma), Mean [1, 8]: 294 ng/mL
Concentration (plasma), individual rat ([1]; 0.5 h, capsule, male SD rat): 254 ng/mL and 721 ng/mL
Concentration (plasma), Mean [1, 9]: 488 ng/mL
Concentration (plasma), individual rat ([1]; 1 h, capsule, male SD rat): 815 ng/mL and 912 ng/mL
Concentration (plasma), Mean ([1]; 1 h, capsule, mean of two male SD rats): 864 ng/mL
Concentration (plasma), individual rat ([1]; 2 h, capsule, male SD rat): 677 ng/mL and 645 ng/mL
Concentration (plasma), Mean ([1]; 2 h, capsule, mean of two male SD rats): 661 ng/mL
Concentration (plasma), individual rat ([1]; 4 h, capsule, male SD rat): 556 ng/mL and 420 ng/mL
Concentration (plasma), Mean ([1]; 4 h, capsule, mean of two male SD rats): 488 ng/mL
Concentration (plasma), individual rat ([1]; 6 h, capsule, male SD rat): 397 ng/mL and 307 ng/mL
Concentration (plasma), Mean ([1]; 6 h, capsule, mean of two male SD rats): 352 ng/mL
Concentration (plasma), individual rat ([1]; 8 h, capsule, male SD rat): 261 ng/mL and 210 ng/mL
Concentration (plasma), Mean ([1]; 8 h, capsule, mean of two male SD rats): 236 ng/mL
Concentration (plasma), individual rat ([1]; 24 h, capsule, male SD rat): 6.71 ng/mL and 4.29 ng/mL
Concentration (plasma), Mean ([1]; 24 h, capsule, mean of two male SD rats): 5.50 ng/mL
AUCInf, individual rat ([1]; capsule, male SD rat): 6079 ng·h/mL and 5446 ng·h/mL
AUC_%Extrap_obs, individual rat ([1]; capsule, male SD rat): 0.485% and 0.329%
AUClast, individual rat ([1]; capsule, male SD rat): 6050 ng·h/mL and 5428 ng·h/mL
AUClast/D, individual rat ([1]; capsule, male SD rat): 3020 ng·h/mL per mg/kg and 2710 ng·h/mL per mg/kg
Cmax, individual rat ([1]; capsule, male SD rat): 815 ng/mL and 912 ng/mL
MRTInf_obs, individual rat ([1]; capsule, male SD rat): 5.40 h and 4.83 h
T1/2, individual rat ([1]; capsule, male SD rat): 3.05 h and 2.89 h
Tmax, individual rat ([1]; capsule, male SD rat): 1.00 h
AUC values higher than SM ([1]; capsule, male SD rats): about 30%
Cmax value relative to SM ([1]; capsule, male SD rats, higher than SM): about 1.3 times
AUCInf, Mean [1, 10]: 5763 ng·h/mL
AUC_%Extrap_obs, Mean [1, 10]: 0.407%
AUClast, Mean [1, 10]: 5739 ng·h/mL
AUClast/D, Mean [1, 10]: 2870 ng·h/mL per mg/kg
Cmax, Mean [1, 10]: 864 ng/mL
MRTInf_obs, Mean [1, 10]: 5.11 h
T1/2, Mean [1, 10]: 2.97 h
Tmax, Mean [1, 10]: 1.00 h
IDR ([5]; FaSSIF, pH 6.5): 2.2 ± 0.06 mg/mL/Cm^2/min
IDR ([5]; FeSSIF, pH 5.0): 4.6 ± 0.07 mg/mL/Cm^2/min
IDR ([5]; SGF, pH 1.2): 7.4 ± 0.21 mg/mL/Cm^2/min
IC50 value lower than SM [6]: about 5%
Compound: Nc1ncn([C@H]2C[C@H](O)[C@@H](CO)S2)c(=O)n1 [Form A, 5-Aza-4′-thio-2′-deoxycytidine]
